Measured values: US20230072854A1, “PARAXANTHINE-BASED BIOACTIVE COMPOSITION AND METHOD OF USE THEREOF” (Ingenious Ingredients, LP, priority 2020, published 2023)

Columns and labels:
volunteers [1] = assay: Psychomotor vigilance task test, double blind crossover vs placebo; type: in vivo, human; conditions: 200 mg
Excerpt: (§1) In a double blind, randomized, crossover, and repeated measures manner, 13 volunteers (10 male, 3 female, average age 24±5 years, average body weight 72.91±19.30 kg, average height 169.96±11.84 cm, average BMI 24.80±3.71 kg/m^2) participated in this study. Participants limited ingestion of caffeine and other stimulants to normal use for 48-hours, fasted for 8-hours and reported to the lab and completed 4 different cognitive function tests to assess short-term attention and inhibitory control (Go-No Go Test), sustained attention (Vigilance Task Test), working memory (Sternberg Task Test) and cognitive flexibility (Berg-Washington Card Sorting Test). Once completed, the participants ingested either a placebo or 200 mg of paraxanthine (WGI, TX, USA) with 8 ounces of water. Participants repeated cognitive function tests 1, 2, 3, 4, 5, and 6 hours after ingestion of the supplement. After one-week participants repeated the experiment while consuming the other treatment.
(§2) Data were analyzed by a General Linear Model multivariate and univariate analyses with repeated measures using body weight as a covariate. Data are expressed as means±standard deviations for the placebo (PLA) and Paraxanthine (PrX). Greenhouse-Geisser univariate p-levels are listed for time (T), weight×time (W×T) and group×time (G×T) interactions effects. Pairwise comparison is indicated by the following superscripts: †=[…] difference from baseline value; *=[…] difference from baseline; a=[…] difference between groups; b=[…] difference between groups. Eta2 vaules of […] are considered small, […] medium, and >0.14 are considered large.
The psychomotor vigilance task test is a sustained attention, reaction timed task that measures the speed with which participants respond to a visual stimulus. Lower Reaction time, especially maintained throughout this many tests represents better ability to sustain attention.

volunteers [2] = assay: Berg-Washington Card Sorting Task Test (BCST), double blind crossover vs placebo; type: in vivo, human; conditions: 200 mg
Excerpt: as §1, §2
Berg-Washington Card Sorting Task Test is a test of basic cognitive flexibility or set-shifting between old/new rule changes. The test involves reasoning, learning, executive control and attention shifting. It is particularly sensitive to the inability to shift set. Less errors means subjects were able to both recognize and ‘shift’ to a new rule with higher ability. […]

[3] = Mean (SEM) over all hours, listed as PrX

SMILES: Cn1c(=O)[nH]c2ncn(C)c2c1=O [paraxanthine, 1,7-dimethylxanthine]
- Trial #2 reaction time (FIG. 11) (volunteers [1]): maintained reaction time
- Trial #10 reaction time (FIG. 12) (volunteers [1]): no significant time or between treatment differences
- effect on average reaction times in the vigilance task test (volunteers [1]): no effect
- Reaction Time (milliseconds) Average (volunteers [1]; Mean (SEM) over all hours): 2,550 milliseconds
- Reaction Time (milliseconds) Trial #2 (volunteers [1]; Mean (SEM) over all hours): 2,659 milliseconds
- Reaction Time (milliseconds) Trial #10 (volunteers [1]; Mean (SEM) over all hours): 2,639 milliseconds
- Reaction Time (milliseconds) Trial #20 (volunteers [1]; Mean (SEM) over all hours): 2,590 milliseconds
- Reaction Time (milliseconds) Average (volunteers [1]; hour 0 (before ingestion)): 2,546 milliseconds
- Reaction Time (milliseconds) Trial #2 (volunteers [1]; hour 0 (before ingestion)): 2,601 milliseconds
- Reaction Time (milliseconds) Trial #10 (volunteers [1]; hour 0 (before ingestion)): 2,607 milliseconds
- Reaction Time (milliseconds) Trial #20 (volunteers [1]; hour 0 (before ingestion)): 2,680 milliseconds
- Reaction Time (milliseconds) Average (volunteers [1]; hour 1 after ingestion): 2,552 milliseconds
- Reaction Time (milliseconds) Trial #2 (volunteers [1]; hour 1 after ingestion): 2,602 milliseconds
- Reaction Time (milliseconds) Trial #10 (volunteers [1]; hour 1 after ingestion): 2,418 milliseconds
- Reaction Time (milliseconds) Trial #20 (volunteers [1]; hour 1 after ingestion): 2,458 milliseconds
- Reaction Time (milliseconds) Average (volunteers [1]; hour 2 after ingestion): 2,508 milliseconds
- Reaction Time (milliseconds) Trial #2 (volunteers [1]; hour 2 after ingestion): 3,005 milliseconds
- Reaction Time (milliseconds) Trial #10 (volunteers [1]; hour 2 after ingestion): 2,651 milliseconds
- Reaction Time (milliseconds) Trial #20 (volunteers [1]; hour 2 after ingestion): 2,220 milliseconds
- Reaction Time (milliseconds) Average (volunteers [1]; hour 3 after ingestion): 2,559 milliseconds
- Reaction Time (milliseconds) Trial #2 (volunteers [1]; hour 3 after ingestion): 2,591 milliseconds
- Reaction Time (milliseconds) Trial #10 (volunteers [1]; hour 3 after ingestion): 2,788 milliseconds
- Reaction Time (milliseconds) Trial #20 (volunteers [1]; hour 3 after ingestion): 2,445 milliseconds
- Reaction Time (milliseconds) Average (volunteers [1]; hour 4 after ingestion): 2,538 milliseconds
- Reaction Time (milliseconds) Trial #2 (volunteers [1]; hour 4 after ingestion): 3,005 milliseconds
- Reaction Time (milliseconds) Trial #10 (volunteers [1]; hour 4 after ingestion): 2,412 milliseconds
- Reaction Time (milliseconds) Trial #20 (volunteers [1]; hour 4 after ingestion): 2,792 milliseconds
- Reaction Time (milliseconds) Average (volunteers [1]; hour 5 after ingestion): 2,570 milliseconds
- Reaction Time (milliseconds) Trial #2 (volunteers [1]; hour 5 after ingestion): 2,441 milliseconds
- Reaction Time (milliseconds) Trial #10 (volunteers [1]; hour 5 after ingestion): 2,783 milliseconds
- Reaction Time (milliseconds) Trial #20 (volunteers [1]; hour 5 after ingestion): 2,544 milliseconds
- Reaction Time (milliseconds) Average (volunteers [1]; hour 6 after ingestion): 2,577 milliseconds
- Reaction Time (milliseconds) Trial #2 (volunteers [1]; hour 6 after ingestion): 2,360 milliseconds
- Reaction Time (milliseconds) Trial #10 (volunteers [1]; hour 6 after ingestion): 2,813 milliseconds
- Reaction Time (milliseconds) Trial #20 (volunteers [1]; hour 6 after ingestion): 3,005 milliseconds
- number of correct answers in BCST, in words (volunteers [2]): significantly increased
- number of errors in BCST, in words (volunteers [2]): reducing the number of errors
- perseverative errors PEBL (FIG. 3) (volunteers [2]): no significant time or between treatment effects
- BCST Correct Response (volunteers [2]; Mean (SEM) over all hours): 97.3
- BCST Errors (volunteers [2]; Mean (SEM) over all hours): 18.0
- BCST Perseverative Errors (PAR rules) (volunteers [2]; Mean (SEM) over all hours): 8.7 ± 1.6
- BCST Perseverative Errors (PEBL) (volunteers [2]; Mean (SEM) over all hours): 12.7 ± 1.2
- BCST Correct Response (volunteers [2]; [3]): 102.5 ± 3.4
- BCST Errors (volunteers [2]; [3]): 18.0 ± 3.9
- change in correct answers after 6 hours (volunteers [2]; after 6 hours): +1.9
- change in errors after 6 hours (volunteers [2]; after 6 hours): −0.6
- correct responses adjusted for differences in baseline values (volunteers [2]; baseline-adjusted): 2.5
- errors adjusted for differences in baseline values (volunteers [2]; baseline-adjusted): −1.5
- less errors than placebo, adjusted for differences in baseline values (volunteers [2]; baseline-adjusted, vs placebo): 600%
- more correct responses than placebo, adjusted for differences in baseline values (volunteers [2]; baseline-adjusted, vs placebo): 150%
- BCST Correct Response (volunteers [2]; hour 0 (before ingestion)): 100.0 ± 6.6
- BCST Errors (volunteers [2]; hour 0 (before ingestion)): 19.5 ± 6.6
- BCST Perseverative Errors (PAR rules) (volunteers [2]; hour 0 (before ingestion)): 10.1 ± 4.6
- BCST Perseverative Errors (PEBL) (volunteers [2]; hour 0 (before ingestion)): 13.7 ± 5.0
- BCST Correct Response (volunteers [2]; hour 1 after ingestion): 101.4 ± 3.6
- BCST Errors (volunteers [2]; hour 1 after ingestion): 18.1 ± 4.3
- BCST Perseverative Errors (PAR rules) (volunteers [2]; hour 1 after ingestion): 8.8 ± 2.1
- BCST Perseverative Errors (PEBL) (volunteers [2]; hour 1 after ingestion): 12.5 ± 3.0
- BCST Correct Response (volunteers [2]; hour 2 after ingestion): 104.3
- BCST Errors (volunteers [2]; hour 2 after ingestion): 16.8
- BCST Perseverative Errors (PAR rules) (volunteers [2]; hour 2 after ingestion): 7.8
- BCST Perseverative Errors (PEBL) (volunteers [2]; hour 2 after ingestion): 12.3
- number of correct responses (FIG. 1) (volunteers [2]; hour 2 and 4 over baseline): significantly (p<0.5) increased
- BCST Correct Response (volunteers [2]; hour 3 after ingestion): 100.6 ± 5.8
- BCST Errors (volunteers [2]; hour 3 after ingestion): 17.0 ± 3.9
- BCST Perseverative Errors (PAR rules) (volunteers [2]; hour 3 after ingestion): 8.5 ± 2.9
- BCST Perseverative Errors (PEBL) (volunteers [2]; hour 3 after ingestion): 12.3 ± 3.2
- number of correct responses between groups (FIG. 1) (volunteers [2]; hour 4, between groups): showed a trend (p<0.1) between groups
- BCST Correct Response (volunteers [2]; hour 4 after ingestion): 106.4
- BCST Errors (volunteers [2]; hour 4 after ingestion): 19.0
- BCST Perseverative Errors (PAR rules) (volunteers [2]; hour 4 after ingestion): 8.6
- BCST Perseverative Errors (PEBL) (volunteers [2]; hour 4 after ingestion): 13.3
- BCST Correct Response (volunteers [2]; hour 5 after ingestion): 101.5 ± 4.0
- BCST Errors (volunteers [2]; hour 5 after ingestion): 18.5 ± 4.2
- BCST Perseverative Errors (PAR rules) (volunteers [2]; hour 5 after ingestion): 8.8 ± 3.6
- BCST Perseverative Errors (PEBL) (volunteers [2]; hour 5 after ingestion): 13.1 ± 3.6
- perseverative errors PAR between groups (FIG. 4) (volunteers [2]; hour 6, between groups): trend (p<0.1) towards less errors between groups
- BCST Correct Response (volunteers [2]; hour 6 after ingestion): 103.5
- BCST Errors (volunteers [2]; hour 6 after ingestion): 16.3
- BCST Perseverative Errors (PAR rules) (volunteers [2]; hour 6 after ingestion): 8.1
- BCST Perseverative Errors (PEBL) (volunteers [2]; hour 6 after ingestion): 11.7
- errors compared to baseline (FIG. 2) (volunteers [2]; hour 6 vs baseline): trend (p<0.1) towards less error
- less errors than placebo, overall (volunteers [2]; overall, vs placebo): 23.7%
- more correct responses than placebo, overall (volunteers [2]; overall, vs placebo): 5.3%
